According to article PMC2632775 (Nuclear medicine and biology, 2008):
Where two headings read alike, the source gives them in different places.

How the values were obtained:
[1] = rats, avg ± SD, cited from earlier work
[2] = molecular target: T1, VMAT2 binding sites in the pancreas (Rattus norvegicus, UniProt Q01827); conditions: rats, 60 min after tracer injection, ± SD, cited from earlier work
[3] = molecular target: T1, VMAT2 binding sites in the pancreas; test: Blocking studies of pancreatic uptake in rats; assay type: in vivo; conditions: for Pancreas uptake, Pretreatment / Blood uptake, Pretreatment: n=5, ± SD
[4] = rats, iv
[5] = molecular target: VMAT2 binding sites of beta cells in the pancreas (Rattus norvegicus, UniProt Q01827); conditions: rats, PET, post iv injection
Chain of VMAT2 binding sites of beta cells in the pancreas (Q01827 whole entry): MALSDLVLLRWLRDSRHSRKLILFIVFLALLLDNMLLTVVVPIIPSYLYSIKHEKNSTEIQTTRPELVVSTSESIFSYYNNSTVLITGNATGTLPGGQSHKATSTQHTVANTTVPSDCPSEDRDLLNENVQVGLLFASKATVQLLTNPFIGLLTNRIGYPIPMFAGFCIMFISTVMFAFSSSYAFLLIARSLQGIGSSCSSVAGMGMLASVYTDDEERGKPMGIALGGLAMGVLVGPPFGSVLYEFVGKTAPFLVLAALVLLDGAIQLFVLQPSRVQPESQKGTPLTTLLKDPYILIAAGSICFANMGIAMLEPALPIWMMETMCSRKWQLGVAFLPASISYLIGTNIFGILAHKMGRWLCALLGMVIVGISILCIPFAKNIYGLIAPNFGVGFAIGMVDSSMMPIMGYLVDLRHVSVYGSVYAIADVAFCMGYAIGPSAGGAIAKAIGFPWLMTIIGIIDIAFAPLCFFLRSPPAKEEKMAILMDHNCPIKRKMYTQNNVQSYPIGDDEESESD

VMAT2 = VMAT2 (Rattus norvegicus, UniProt Q01827); test: In vitro autoradiography using rat brain sections; assay type: binding; conditions: preliminary, data not shown
Chain of VMAT2 (Q01827 whole entry): as above

[6] = pretreatment of (+)2 3.5 mg/kg iv 5 min prior
[7] = 60 min after tracer injection, no pretreatment, n=4, ± SD
[8] = 60 min after tracer injection, pretreatment of (+)2 3.5 mg/kg iv 5 min prior
[9] = 30 min after tracer injection, no pretreatment, n=4, ± SD
[10] = 30 min after tracer injection, pretreatment of (+)DTBZ 3.3 mg/kg iv 5 min prior

T1 sequence (Q01827 whole entry): as above

COc1cc2c(cc1OCCC[18F])CCN1CC(CC(C)C)C(O)CC21 (stereo not drawn) [[^18F](+)2, [^18F](−)-2-Hydroyxl-3-isobutyl-9-(3-fluoropropoxy)-10-methoxy-2,3,4,6,7, 11b-hexahydro-1H-pyrido[2,1-a]isoquinoline]
Blood uptake ([1]; 2 min): 0.26 ± 0.03 %ID/g | Brain uptake ([1]; 2 min): 0.71 ± 0.05 %ID/g | Heart uptake ([1]; 2 min): 0.71 ± 0.07 %ID/g | Kidney uptake ([1]; 2 min): 2.10 ± 0.17 %ID/g | Liver uptake ([1]; 2 min): 3.53 ± 0.56 %ID/g | Lung uptake ([1]; 2 min): 0.94 ± 0.04 %ID/g | Muscle uptake ([1]; 2 min): 0.14 ± 0.03 %ID/g | Pancreas uptake ([1]; 2 min): 2.51 ± 0.22 %ID/g | Skin uptake ([1]; 2 min): 0.23 ± 0.05 %ID/g | Spleen uptake ([1]; 2 min): 1.46 ± 0.15 %ID/g | Blood uptake ([1]; 30 min): 0.23 ± 0.06 %ID/g | Brain uptake ([1]; 30 min): 0.62 ± 0.08 %ID/g | Heart uptake ([1]; 30 min): 0.41 ± 0.03 %ID/g | Kidney uptake ([1]; 30 min): 1.06 ± 0.06 %ID/g | Liver uptake ([1]; 30 min): 2.82 ± 0.24 %ID/g | Lung uptake ([1]; 30 min): 0.69 ± 0.03 %ID/g | Muscle uptake ([1]; 30 min): 0.17 ± 0.02 %ID/g | Pancreas uptake ([1]; 30 min): 5.50 ± 0.97 %ID/g | Skin uptake ([1]; 30 min): 0.28 ± 0.01 %ID/g | Spleen uptake ([1]; 30 min): 1.03 ± 0.18 %ID/g | Blood uptake ([1]; 60 min): 0.18 ± 0.02 %ID/g | Brain uptake ([1]; 60 min): 0.42 ± 0.04 %ID/g | Heart uptake ([1]; 60 min): 0.30 ± 0.10 %ID/g | Kidney uptake ([1]; 60 min): 0.84 ± 0.09 %ID/g | Liver uptake ([1]; 60 min): 2.47 ± 0.30 %ID/g | Lung uptake ([1]; 60 min): 0.54 ± 0.14 %ID/g | Muscle uptake ([1]; 60 min): 0.13 ± 0.01 %ID/g | Pancreas uptake ([1]; 60 min): 4.98 ± 0.24 %ID/g | Skin uptake ([1]; 60 min): 0.23 ± 0.04 %ID/g | Spleen uptake ([1]; 60 min): 0.83 ± 0.18 %ID/g | Blood uptake ([1]; 120 min): 0.12 ± 0.03 %ID/g | Brain uptake ([1]; 120 min): 0.35 ± 0.02 %ID/g | Heart uptake ([1]; 120 min): 0.22 ± 0.01 %ID/g | Kidney uptake ([1]; 120 min): 0.55 ± 0.06 %ID/g | Liver uptake ([1]; 120 min): 1.47 ± 0.13 %ID/g | Lung uptake ([1]; 120 min): 0.35 ± 0.03 %ID/g | Muscle uptake ([1]; 120 min): 0.10 ± 0.01 %ID/g | Pancreas uptake ([1]; 120 min): 2.76 ± 0.61 %ID/g | Skin uptake ([1]; 120 min): 0.16 ± 0.02 %ID/g | Spleen uptake ([1]; 120 min): 0.48 ± 0.04 %ID/g | Blood uptake, Control ([2]; no pretreatment): 0.20 ± 0.02 %ID/g | Pancreas uptake, Control ([2]; no pretreatment): 4.93 ± 0.49 %ID/g | Blood uptake, Pretreatment [2, 6]: 0.26 ± 0.04 %ID/g | Pancreas uptake, Pretreatment [2, 6]: 1.11 ± 0.07 %ID/g | Pancreas uptake, Control [3, 7]: 2.19 %ID/g | Pancreas uptake, Pretreatment [3, 8]: 0.32 %ID/g

COc1cc2c(cc1OCCC[18F])CCN1CC(CC(C)C)C(C3CO3)CC21 (stereo not drawn) [[^18F](+)4] [[^18F](+)-2-Oxiranyl-3-isobutyl-9-(3-fluoropropoxy)-10-methoxy-2,3,4,6,7, 11b-hexahydro-1H-pyrido[2,1-a]isoquinoline]
Pancreas uptake, Pretreatment [2, 6]: 1.11 %ID/g | Blood uptake ([4]; 2 min, n=3): 0.27 %ID/g | Bone uptake ([4]; 2 min, n=3): 0.29 %ID/g | Brain uptake ([4]; 2 min, n=3): 0.95 %ID/g | Heart uptake ([4]; 2 min, n=3): 0.48 %ID/g | Kidney uptake ([4]; 2 min, n=3): 4.60 %ID/g | Liver uptake ([4]; 2 min, n=3): 3.28 %ID/g | Lung uptake ([4]; 2 min, n=3): 0.79 %ID/g | Muscle uptake ([4]; 2 min, n=3): 1.00 %ID/g | Pancreas uptake ([4]; 2 min, n=3): 1.64 %ID/g | Skin uptake ([4]; 2 min, n=3): 0.21 %ID/g | Spleen uptake ([4]; 2 min, n=3): 1.36 %ID/g | Blood uptake ([4]; 30 min, n=3): 0.15 %ID/g | Brain uptake ([4]; 30 min, n=3): 0.30 %ID/g | Heart uptake ([4]; 30 min, n=3): 0.11 %ID/g | Kidney uptake ([4]; 30 min, n=3): 3.59 %ID/g | Liver uptake ([4]; 30 min, n=3): 1.02 %ID/g | Lung uptake ([4]; 30 min, n=3): 0.48 %ID/g | Pancreas uptake ([4]; 30 min, n=3): 1.96 %ID/g | Skin uptake ([4]; 30 min, n=3): 0.14 %ID/g | Spleen uptake ([4]; 30 min, n=3): 0.26 %ID/g | Blood uptake ([4]; 60 min, n=7): 0.10 %ID/g | Bone uptake ([4]; 60 min, n=7): 0.23 %ID/g | Brain uptake ([4]; 60 min, n=7): 0.32 %ID/g | Heart uptake ([4]; 60 min, n=7): 0.07 %ID/g | Kidney uptake ([4]; 60 min, n=7): 2.21 %ID/g | Liver uptake ([4]; 60 min, n=7): 0.67 %ID/g | Lung uptake ([4]; 60 min, n=7): 0.14 %ID/g | Muscle uptake ([4]; 60 min, n=7): 0.04 %ID/g | Pancreas uptake ([4]; 60 min, n=7): 2.68 %ID/g | Skin uptake ([4]; 60 min, n=7): 0.09 %ID/g | Spleen uptake ([4]; 60 min, n=7): 0.16 %ID/g | Blood uptake ([4]; 120 min, n=7): 0.04 %ID/g | Bone uptake ([4]; 120 min, n=7): 0.22 %ID/g | Brain uptake ([4]; 120 min, n=7): 0.24 %ID/g | Heart uptake ([4]; 120 min, n=7): 0.02 %ID/g | Kidney uptake ([4]; 120 min, n=7): 1.58 %ID/g | Liver uptake ([4]; 120 min, n=7): 0.54 %ID/g | Lung uptake ([4]; 120 min, n=7): 0.05 %ID/g | Muscle uptake ([4]; 120 min, n=7): 0.02 %ID/g | Pancreas uptake ([4]; 120 min, n=7): 1.33 %ID/g | Skin uptake ([4]; 120 min, n=7): 0.04 %ID/g | Spleen uptake ([4]; 120 min, n=7): 0.08 %ID/g | Blood uptake ([4]; 240 min, n=4): 0.02 %ID/g | Bone uptake ([4]; 240 min, n=4): 0.27 %ID/g | Brain uptake ([4]; 240 min, n=4): 0.28 %ID/g | Heart uptake ([4]; 240 min, n=4): 0.01 %ID/g | Kidney uptake ([4]; 240 min, n=4): 2.01 %ID/g | Liver uptake ([4]; 240 min, n=4): 0.54 %ID/g | Lung uptake ([4]; 240 min, n=4): 0.03 %ID/g | Muscle uptake ([4]; 240 min, n=4): 0.01 %ID/g | Pancreas uptake ([4]; 240 min, n=4): 0.81 %ID/g | Skin uptake ([4]; 240 min, n=4): 0.02 %ID/g | Spleen uptake ([4]; 240 min, n=4): 0.04 %ID/g | Pancreas uptake, Control [3, 7]: 2.19 ± 0.37 %ID/g | Blood uptake, Pretreatment [3, 8]: 0.06 ± 0.01 %ID/g | Pancreas uptake, Pretreatment [3, 8]: 0.32 ± 0.07 %ID/g | Time of peak uptake and retention in the pancreas [5]: around 60 min

COc1cc2c(cc1OCCC[18F])CCN1CC(CC(C)C)C(C3CO3)CC21 (stereo not drawn) [[^18F](−)4] [[^18F](−)-2-Oxiranyl-3-isobutyl-9-(3-fluoropropoxy)-10-methoxy-2,3,4,6,7, 11b-hexahydro-1H-pyrido[2,1-a]isoquinoline]
Labeling of rat brain sections (in vitro autoradiography) (VMAT2): no specific binding in any brain region | Displaceability of pancreas uptake ([3]; 30 min, iv pretreatment of (+)DTBZ 3.3 mg/kg 5 min prior): non-displaceable | Blood uptake, Control [3, 9]: 0.07 ± 0.00 %ID/g | Pancreas uptake, Control [3, 9]: 0.22 ± 0.02 %ID/g | Blood uptake, Pretreatment [3, 10]: 0.12 ± 0.03 %ID/g | Pancreas uptake, Pretreatment [3, 10]: 0.22 ± 0.04 %ID/g
